Data published in patent US20240294541A1, “COMPOUNDS CONSTITUTING C20-MODIFIED SALINOMYCIN DERIVATIVES, A METHOD FOR OBTAINING THE SAME, A COMPOSITION CONTAINING THE SAME AND A USE OF SAID COMPOUNDS” (FILECLO SPOLKA Z OGRANICZONA ODPOWIEDZIALNOSCIA, priority 2021, published 2024).

Tests used:
Assay type in all cases: cell-based
[1] = system: A2780Cis (cisplatin-resistant human ovarian cancer); assay: In vitro cytotoxicity, SRB assay, A2780Cis; conditions: for IC50: Homo sapiens, A2780cis, read-out: IC50 (nM) A2780Cis
[2] = system: BALB/3T3 (normal mouse fibroblasts); assay: In vitro cytotoxicity, SRB assay, normal BALB/3T3 fibroblasts; conditions: Table 5; BALB/3T3 normal mouse fibroblasts; read-out: IC50 (nM) BALB3T3 normal cells
[3] = system: MV-4-11 (human biphenotypic leukaemia); assay: In vitro cytotoxicity, MTT assay, MV-4-11; conditions: for IC50: Homo sapiens, MV4-11, read-out: IC50 (nM) MV4-11
[4] = system: PLC/PRF/5 (human liver cancer); assay: cells; conditions: Table 4; PLC/PRF/5 human liver cancer cells; read-out: IC50 (nM) PLC/PRF/5
Hs294T (human melanoma) = assay: cells; conditions: Hs 294T; Table 4; Hs294T human melanoma cells; read-out: IC50 (nM) Hs294T
[5] = system: MIA PaCa-2 (human pancreatic cancer); assay: cells; conditions: Table 4; MIA PaCa-2 human pancreatic cancer cells; read-out: IC50 (nM) MIA PaCa-2

SMILES | SI A2780Cis [1] | IC50 [1] | IC50 [2] | SI MV4-11 [3] | IC50 [3] | IC50 [4] | IC50 (Hs294T (human melanoma)) | IC50 [5]
CC[C@@H](C(=O)[C@@H](C)[C@@H](O)[C@H](C)[C@@H]1O[C@@H]([C@@H](CC)C(=O)O)CC[C@@H]1C)[C@H]1O[C@]2(C=C[C@@H](NC(=O)c3cccc(C(F)(F)F)c3)[C@]3(CC[C@@](C)([C@H]4CC[C@](O)(CC)[C@H](C)O4)O3)O2)[C@H](C)C[C@@H]1C [FLC-00579-1•Na] | 22.3 | 71.4 nM | 1590 nM | 8.5 | 188 nM |  |  | 
CC[C@@H](C(=O)[C@@H](C)[C@@H](O)[C@H](C)[C@@H]1O[C@@H]([C@@H](CC)C(=O)O)CC[C@@H]1C)[C@H]1O[C@]2(C=C[C@@H](NC(=O)N3CCS(=O)(=O)CC3)[C@]3(CC[C@@](C)([C@H]4CC[C@](O)(CC)[C@H](C)O4)O3)O2)[C@H](C)C[C@@H]1C [FLC-00560-1•Na] | 18.8 | 283 nM | 5330 nM | 15.7 | 339 nM |  |  | 
CC[C@@H](C(=O)[C@@H](C)[C@@H](O)[C@H](C)[C@@H]1O[C@@H]([C@@H](CC)C(=O)O)CC[C@@H]1C)[C@H]1O[C@]2(C=C[C@@H](NC(=O)C(=O)NCCN(C)C)[C@]3(CC[C@@](C)([C@H]4CC[C@](O)(CC)[C@H](C)O4)O3)O2)[C@H](C)C[C@@H]1C [FLC-00471-1•Na] |  | 4290 nM |  |  | 4730 nM |  |  | 
CC[C@@H](C(=O)[C@@H](C)[C@@H](O)[C@H](C)[C@@H]1O[C@@H]([C@@H](CC)C(=O)O)CC[C@@H]1C)[C@H]1O[C@]2(C=C[C@@H](NC(=O)OCCCN(C)C)[C@]3(CC[C@@](C)([C@H]4CC[C@](O)(CC)[C@H](C)O4)O3)O2)[C@H](C)C[C@@H]1C [FLC-00498-1•Na] | 6.6 | 758 nM | 5010 nM | 3.2 | 1560 nM |  |  | 
CC[C@@H](C(=O)[C@@H](C)[C@@H](O)[C@H](C)[C@@H]1O[C@@H]([C@@H](CC)C(=O)O)CC[C@@H]1C)[C@H]1O[C@]2(C=C[C@@H](NC(=O)C(=O)NCCCn3ccnc3)[C@]3(CC[C@@](C)([C@H]4CC[C@](O)(CC)[C@H](C)O4)O3)O2)[C@H](C)C[C@@H]1C [FLC-00392-1•Na] |  | 3750 nM |  |  | 1960 nM | 8330 nM |  | 
CC[C@@H](C(=O)[C@@H](C)[C@@H](O)[C@H](C)[C@@H]1O[C@@H]([C@@H](CC)C(=O)O)CC[C@@H]1C)[C@H]1O[C@]2(C=C[C@@H](NC(=O)OCCOC(C)(C)C)[C@]3(CC[C@@](C)([C@H]4CC[C@](O)(CC)[C@H](C)O4)O3)O2)[C@H](C)C[C@@H]1C [FLC-00480-1•Na] | 43.6 | 4.25 nM | 185 nM | 9.7 | 19.1 nM |  |  | 
CC[C@@H](C(=O)[C@@H](C)[C@@H](O)[C@H](C)[C@@H]1O[C@@H]([C@@H](CC)C(=O)O)CC[C@@H]1C)[C@H]1O[C@]2(C=C[C@@H](NC(=O)OC3CCOCC3)[C@]3(CC[C@@](C)([C@H]4CC[C@](O)(CC)[C@H](C)O4)O3)O2)[C@H](C)C[C@@H]1C [FLC-00580-1•Na] | 94.4 | 2.24 nM | 211 nM | 32.5 | 6.51 nM |  |  | 
CC[C@@H](C(=O)[C@@H](C)[C@@H](O)[C@H](C)[C@@H]1O[C@@H]([C@@H](CC)C(=O)O)CC[C@@H]1C)[C@H]1O[C@]2(C=C[C@@H](NS(=O)(=O)c3cccs3)[C@]3(CC[C@@](C)([C@H]4CC[C@](O)(CC)[C@H](C)O4)O3)O2)[C@H](C)C[C@@H]1C [FLC-00505-1•Na] | 15.2 | 7.61 nM | 116 nM | 8.3 | 14 nM |  |  | 
CC[C@@H](C(=O)[C@@H](C)[C@@H](O)[C@H](C)[C@@H]1O[C@@H]([C@@H](CC)C(=O)O)CC[C@@H]1C)[C@H]1O[C@]2(C=C[C@@H](NS(=O)(=O)c3ccc(C)cc3)[C@]3(CC[C@@](C)([C@H]4CC[C@](O)(CC)[C@H](C)O4)O3)O2)[C@H](C)C[C@@H]1C [FLC-00502-1•Na] | 52.7 | 1.76 nM | 92.7 nM | 28.1 | 3.3 nM |  |  | 
CC[C@@H](C(=O)[C@@H](C)[C@@H](O)[C@H](C)[C@@H]1O[C@@H]([C@@H](CC)C(=O)O)CC[C@@H]1C)[C@H]1O[C@]2(C=C[C@@H](NC(=O)NCCCN(C)C)[C@]3(CC[C@@](C)([C@H]4CC[C@](O)(CC)[C@H](C)O4)O3)O2)[C@H](C)C[C@@H]1C [FLC-00562-1•Na] |  | 3010 nM |  |  | 3070 nM |  |  | 
CC[C@@H](C(=O)[C@@H](C)[C@@H](O)[C@H](C)[C@@H]1O[C@@H]([C@@H](CC)C(=O)O)CC[C@@H]1C)[C@H]1O[C@]2(C=C[C@@H](NC(=O)OCCCCl)[C@]3(CC[C@@](C)([C@H]4CC[C@](O)(CC)[C@H](C)O4)O3)O2)[C@H](C)C[C@@H]1C [FLC-00530-1•Na] | 24.0 | 2.6 nM | 62.5 nM | 9.7 | 6.42 nM |  |  | 
CC[C@@H](C(=O)[C@@H](C)[C@@H](O)[C@H](C)[C@@H]1O[C@@H]([C@@H](CC)C(=O)O)CC[C@@H]1C)[C@H]1O[C@]2(C=C[C@@H](NC(=O)OCCS(C)(=O)=O)[C@]3(CC[C@@](C)([C@H]4CC[C@](O)(CC)[C@H](C)O4)O3)O2)[C@H](C)C[C@@H]1C [FLC-00483-1•Na] | 21.2 | 250 nM | 5310 nM | 15.7 | 339 nM |  |  | 
CC[C@@H](C(=O)[C@@H](C)[C@@H](O)[C@H](C)[C@@H]1O[C@@H]([C@@H](CC)C(=O)O)CC[C@@H]1C)[C@H]1O[C@]2(C=C[C@@H](NC(=O)OC(C)(C)C#N)[C@]3(CC[C@@](C)([C@H]4CC[C@](O)(CC)[C@H](C)O4)O3)O2)[C@H](C)C[C@@H]1C [FLC-00551-1•Na] | 12.5 | 63.6 nM | 792 nM | 9.8 | 81 nM |  |  | 
CC[C@@H](C(=O)[C@@H](C)[C@@H](O)[C@H](C)[C@@H]1O[C@@H]([C@@H](CC)C(=O)O)CC[C@@H]1C)[C@H]1O[C@]2(C=C[C@@H](NC(=O)NCCCN3CCS(=O)(=O)CC3)[C@]3(CC[C@@](C)([C@H]4CC[C@](O)(CC)[C@H](C)O4)O3)O2)[C@H](C)C[C@@H]1C [FLC-00546-1•Na] | 19.5 | 112 nM | 2180 nM | 8.5 | 258 nM |  |  | 
CC[C@@H](C(=O)[C@@H](C)[C@@H](O)[C@H](C)[C@@H]1O[C@@H]([C@@H](CC)C(=O)O)CC[C@@H]1C)[C@H]1O[C@]2(C=C[C@@H](NC(=O)c3cc(OC)c(OC)c(OC)c3)[C@]3(CC[C@@](C)([C@H]4CC[C@](O)(CC)[C@H](C)O4)O3)O2)[C@H](C)C[C@@H]1C [FLC-00573-1•Na] |  |  | 1880 nM |  | 158 nM |  |  | 
CC[C@@H](C(=O)[C@@H](C)[C@@H](O)[C@H](C)[C@@H]1O[C@@H]([C@@H](CC)C(=O)O)CC[C@@H]1C)[C@H]1O[C@]2(C=C[C@@H](NC(=O)N3CCN(CC)C(=O)C3=O)[C@]3(CC[C@@](C)([C@H]4CC[C@](O)(CC)[C@H](C)O4)O3)O2)[C@H](C)C[C@@H]1C [FLC-00518-1•Na] |  | 3220 nM |  |  | 3490 nM |  |  | 
CC[C@@H](C(=O)[C@@H](C)[C@@H](O)[C@H](C)[C@@H]1O[C@@H]([C@@H](CC)C(=O)O)CC[C@@H]1C)[C@H]1O[C@]2(C=C[C@@H](NC(=O)CBr)[C@]3(CC[C@@](C)([C@H]4CC[C@](O)(CC)[C@H](C)O4)O3)O2)[C@H](C)C[C@@H]1C [FLC-00501-1•Na, C20-aminosalinomycin 2-bromoacetamide] | 1.3 | 2230 nM | 2830 nM | 1.6 | 1740 nM |  |  | 
CC[C@@H](C(=O)[C@@H](C)[C@@H](O)[C@H](C)[C@@H]1O[C@@H]([C@@H](CC)C(=O)O)CC[C@@H]1C)[C@H]1O[C@]2(C=C[C@@H](NC(=O)C(=O)NCCN)[C@]3(CC[C@@](C)([C@H]4CC[C@](O)(CC)[C@H](C)O4)O3)O2)[C@H](C)C[C@@H]1C [FLC-00456-1•Na] |  | 2850 nM |  |  | 3430 nM | 7290 nM | 8690 nM | 
CC[C@@H](C(=O)[C@@H](C)[C@@H](O)[C@H](C)[C@@H]1O[C@@H]([C@@H](CC)C(=O)O)CC[C@@H]1C)[C@H]1O[C@]2(C=C[C@@H](NC(=O)N(C)CCCN(C)C)[C@]3(CC[C@@](C)([C@H]4CC[C@](O)(CC)[C@H](C)O4)O3)O2)[C@H](C)C[C@@H]1C [FLC-00563-1•Na] |  | 3120 nM |  |  | 3250 nM |  |  | 
CC[C@@H](C(=O)[C@@H](C)[C@@H](O)[C@H](C)[C@@H]1O[C@@H]([C@@H](CC)C(=O)O)CC[C@@H]1C)[C@H]1O[C@]2(C=C[C@@H](NC(=O)C(=O)NCCN3CCOCC3)[C@]3(CC[C@@](C)([C@H]4CC[C@](O)(CC)[C@H](C)O4)O3)O2)[C@H](C)C[C@@H]1C [FLC-00465-1•Na] |  | 3070 nM |  |  | 3170 nM |  |  | 
CCCCCCCCCCCCCCCCOC(=O)N[C@@H]1C=C[C@]2(O[C@H]([C@@H](CC)C(=O)[C@@H](C)[C@@H](O)[C@H](C)[C@@H]3O[C@@H]([C@@H](CC)C(=O)O)CC[C@@H]3C)[C@@H](C)C[C@H]2C)O[C@@]12CC[C@@](C)([C@H]1CC[C@](O)(CC)[C@H](C)O1)O2 [FLC-00410-1•Na] |  | 7700 nM |  |  | 3740 nM |  |  | 
CC[C@@H](C(=O)[C@@H](C)[C@@H](O)[C@H](C)[C@@H]1O[C@@H]([C@@H](CC)C(=O)O)CC[C@@H]1C)[C@H]1O[C@]2(C=C[C@@H](NC(=O)C(=O)NCCO)[C@]3(CC[C@@](C)([C@H]4CC[C@](O)(CC)[C@H](C)O4)O3)O2)[C@H](C)C[C@@H]1C [FLC-00438-1•Na] |  | 2900 nM |  |  | 2500 nM | 7280 nM |  | 6460 nM
